Laboratory results: ChEMBL document CHEMBL1156829 (Proc Natl Acad Sci U S A, 2008)
pEC50: −log10 of the molar value.

What was measured:
Plasmodium falciparum [1] = experiment: NOVARTIS: Inhibition of Plasmodium falciparum W2 (drug-resistant) proliferation in erythrocyte-based infection assay; format: functional, organism-based; conditions: for pEC50: Plasmodium falciparum, W2, read-out: EC50
Plasmodium falciparum [2] = experiment: NOVARTIS: Inhibition of Plasmodium falciparum 3D7 (drug-susceptible) proliferation in erythrocyte-based infection assay; format: functional, organism-based; conditions: Plasmodium falciparum, 3D7
[3] = NOVARTIS: Cytotoxicity against human hepatocellular carcinoma cell line (Huh7); format: toxicity, cell-based, Huh-7; conditions: Huh7 cells (hepatocellular carcinoma cell line)

With `N=C(N)NN=Cc1cc(Cl)ccc1O` the EC50 (Plasmodium falciparum [1]) was “No fit”, the pEC50 (Plasmodium falciparum [2]) was 7.89 and the CC50 [3] was greater than 1860 nM.

For `CCN(CC)Cc1cc(Nc2ccnc3cc(Cl)ccc23)ccc1O`, the pEC50 (Plasmodium falciparum [1]) was 7.88, the pEC50 (Plasmodium falciparum [2]) was 7.99 and the CC50 [3] was greater than 100000 nM.

In the case of `O=c1c(=Cc2ccc(Cl)cc2)sc2nc3ccccc3n12`, the pEC50 (Plasmodium falciparum [1]) was 6.72, the pEC50 (Plasmodium falciparum [2]) was less than 6.36 and the CC50 [3] was greater than 10000 nM.

`O=C1c2ccccc2-c2nnc(-c3ccc(Br)cc3)cc21` showed a pEC50 (Plasmodium falciparum [1]) of 5.72, a pEC50 (Plasmodium falciparum [2]) of less than 5.60 and a CC50 [3] greater than 100000 nM.

Work on `CC1CCC2C(C)C(=O)OC3OC4(C)CCC1C32OO4` (centres undefined) yielded a pEC50 (Plasmodium falciparum [1]) of 8.34, a pEC50 (Plasmodium falciparum [2]) of 7.92 and a CC50 [3] greater than 100000 nM.

`Clc1ncnc2ncn(Cc3ccccc3)c12` showed a pEC50 (Plasmodium falciparum [1]) of 5.96, a pEC50 (Plasmodium falciparum [2]) of 5.78 and a CC50 [3] of 58100 nM.

In the case of `CC(C=NNC(N)=S)=NNC(N)=S`, the pEC50 (Plasmodium falciparum [1]) was 8.14, the pEC50 (Plasmodium falciparum [2]) was 8.05 and the CC50 [3] was greater than 100000 nM.

`CCC(c1nc2ccccc2c(=O)n1-c1ccc(F)c(Cl)c1)N(CCc1ccccc1)C(=O)COc1ccc(Cl)cc1` (centres undefined) gave a pEC50 (Plasmodium falciparum [1]) greater than 9.07, a pEC50 (Plasmodium falciparum [2]) of 6.03 and a CC50 [3] greater than 6450 nM.

Work on `COC(OC)C(C)=NNC(N)=S` yielded a pEC50 (Plasmodium falciparum [1]) of 8.44, a pEC50 (Plasmodium falciparum [2]) of 8.05 and a CC50 [3] greater than 100000 nM.

In the case of `CCOC(=O)C1=C(c2ccccc2)N=c2sc(=Cc3cc(OC)c(OC)c(OC)c3)c(=O)n2C1c1c(OC)ccc2ccccc12` (centres undefined), the EC50 (Plasmodium falciparum [1]) was “No fit”, the pEC50 (Plasmodium falciparum [2]) was less than 5.11 and the CC50 [3] was greater than 100000 nM.

Compound `Cc1ccc(C(C(=O)NC2CCCCC2)N(C(=O)Cn2nnc3ccccc32)c2ccc(S(=O)(=O)NCC3CCCO3)cc2)o1` (centres undefined) has a pEC50 (Plasmodium falciparum [1]) of 5.72, a pEC50 (Plasmodium falciparum [2]) of less than 4.91 and a CC50 [3] greater than 100000 nM.

In the case of `CCCOC(=O)C1=C(C)NC2=C(C(=O)CC(c3ccc(OC)c(OC)c3)C2)C1c1ccccc1C` (centres undefined), the pEC50 (Plasmodium falciparum [1]) was 8.01, the pEC50 (Plasmodium falciparum [2]) was 7.90 and the CC50 [3] was greater than 100000 nM.

`COc1ccc(C2CC(=O)C3=C(C2)NC(C)=C(C(=O)OC(C)C)C3c2ccc(Cl)cc2Cl)cc1OC` (centres undefined) showed a pEC50 (Plasmodium falciparum [1]) of 8.41, a pEC50 (Plasmodium falciparum [2]) of 8.20 and a CC50 [3] greater than 100000 nM.

With `CCc1nc2nc(C)cc(Nc3ccc(I)cc3)n2n1` the pEC50 (Plasmodium falciparum [1]) was greater than 8.52, the pEC50 (Plasmodium falciparum [2]) was 6.59 and the CC50 [3] was greater than 100000 nM.

Compound `CCCCN(CCCC)C(=O)Cn1ccc(=N)c2ccccc21` has a pEC50 (Plasmodium falciparum [1]) greater than 9.82, a pEC50 (Plasmodium falciparum [2]) of 5.43 and a CC50 [3] greater than 100000 nM.

`COCCOC(=O)C1=C(C)NC2=C(C(=O)CC(c3ccc(OC)c(OC)c3)C2)C1c1ccccc1Cl` (centres undefined) gave a pEC50 (Plasmodium falciparum [1]) of 7.88, a pEC50 (Plasmodium falciparum [2]) of 7.30 and a CC50 [3] greater than 100000 nM.

Compound `CCOC(=O)c1cnc2cc(OCC3CC3)c(OCC3CC3)cc2c1O` has a pEC50 (Plasmodium falciparum [1]) greater than 10.15, a pEC50 (Plasmodium falciparum [2]) greater than 8.24 and a CC50 [3] greater than 100000 nM.

With `COC(=O)c1sc2nc(CN3CCC(C)CC3)ccc2c1NC(=O)c1ccc(C)s1` the EC50 (Plasmodium falciparum [1]) was “No fit”, the pEC50 (Plasmodium falciparum [2]) was 5.01 and the CC50 [3] was greater than 100000 nM.

In the case of `CCOC(=O)c1cnc2c(OC)cccc2c1Nc1cccc(C(F)(F)F)c1`, the EC50 (Plasmodium falciparum [1]) was “No fit”, the pEC50 (Plasmodium falciparum [2]) was 6.03 and the CC50 [3] was 26000 nM.

In the case of `CCOC(=O)c1sc2nc(N)c(C#N)c(-c3cccs3)c2c1N`, the EC50 (Plasmodium falciparum [1]) was “No fit”, the pEC50 (Plasmodium falciparum [2]) was 5.95 and the CC50 [3] was greater than 100000 nM.

For `Cc1cc(C)c(S(=O)(=O)N2CCC(NC(=O)c3ccccc3)CC2)c(C)c1`, the EC50 (Plasmodium falciparum [1]) was “No fit”, the pEC50 (Plasmodium falciparum [2]) was 5.97 and the CC50 [3] was greater than 100000 nM.

For `CCc1c(C#N)c(N)nc(SCC(=O)c2ccc(C)cc2)c1C#N`, the EC50 (Plasmodium falciparum [1]) was “No fit”, the pEC50 (Plasmodium falciparum [2]) was 5.92 and the CC50 [3] was greater than 100000 nM.

`COc1ccc(OC)c(-c2ccc(O)c(CN3CCC(c4ccccc4)CC3)c2)c1` gave a pEC50 (Plasmodium falciparum [1]) of 8.04, a pEC50 (Plasmodium falciparum [2]) of 6.29 and a CC50 [3] greater than 100000 nM.

In the case of `CCOC(=O)C1=C(C)NC2=C(C(=O)CC(c3ccc(OC)c(OC)c3)C2)C1c1ccccc1Cl` (centres undefined), the pEC50 (Plasmodium falciparum [1]) was 8.06, the pEC50 (Plasmodium falciparum [2]) was 8.30 and the CC50 [3] was greater than 100000 nM.

`CCOC(=O)c1cc(-c2ccc(OC)cc2)n(CCC(=O)Nc2cccc(C(C)=O)c2)c1C` gave a pEC50 (Plasmodium falciparum [1]) of 8.07, a pEC50 (Plasmodium falciparum [2]) of 7.66 and a CC50 [3] greater than 100000 nM.

Compound `CCOC(=O)C1=C(C)NC2=C(C(=O)CC(c3ccc(OC)c(OC)c3)C2)C1c1ccc(F)cc1` (centres undefined) has a pEC50 (Plasmodium falciparum [1]) of 7.91, a pEC50 (Plasmodium falciparum [2]) of 7.74 and a CC50 [3] greater than 100000 nM.

Compound `CCCOC(=O)C1=C(C)NC2=C(C(=O)CC(c3ccc(OC)c(OC)c3)C2)C1c1cccc(Cl)c1Cl` (centres undefined) has a pEC50 (Plasmodium falciparum [1]) of 7.92, a pEC50 (Plasmodium falciparum [2]) of 7.32 and a CC50 [3] greater than 100000 nM.

In the case of `CCCCOc1ccc(N(C(C)=O)C2=C(N3CCCCC3)C(=O)c3ccccc3C2=O)cc1`, the pEC50 (Plasmodium falciparum [1]) was 8.38, the pEC50 (Plasmodium falciparum [2]) was 8.25 and the CC50 [3] was 54400 nM.

`COc1ccc(C2CC(=O)C3=C(C2)NC(C)=C(C(=O)OC2CCCC2)C3c2ccccc2Cl)cc1OC` (centres undefined) gave a pEC50 (Plasmodium falciparum [1]) of 8.13, a pEC50 (Plasmodium falciparum [2]) of 7.25 and a CC50 [3] greater than 100000 nM.

Work on `O=C1N(Cc2cc3ccccc3s2)CC2CN(Cc3cccc4c3OCO4)CCN12` (centres undefined) yielded a pEC50 (Plasmodium falciparum [1]) greater than 9.24, a pEC50 (Plasmodium falciparum [2]) of 6.14 and a CC50 [3] greater than 10000 nM.

Compound `COCCOC(=O)C1=C(C)NC2=C(C(=O)CC(c3ccc(OC)c(OC)c3)C2)C1c1ccc(Cl)cc1Cl` (centres undefined) has a pEC50 (Plasmodium falciparum [1]) of 7.88, a pEC50 (Plasmodium falciparum [2]) of 7.65 and a CC50 [3] greater than 100000 nM.

`COc1ccc(C2CC(=O)C3=C(C2)NC(C)=C(C(=O)OC2CCCC2)C3c2ccccc2C)cc1OC` (centres undefined) gave a pEC50 (Plasmodium falciparum [1]) of 7.88, a pEC50 (Plasmodium falciparum [2]) of 7.48 and a CC50 [3] greater than 100000 nM.

`CCOC(=O)C1=C(C)NC2=C(C(=O)CC(c3ccc(OC)c(OC)c3)C2)C1c1ccc(Cl)cc1Cl` (centres undefined) gave a pEC50 (Plasmodium falciparum [1]) of 7.94, a pEC50 (Plasmodium falciparum [2]) of 7.59 and a CC50 [3] greater than 100000 nM.
